Measurements published in ChEMBL document CHEMBL1136264, “Syntheses of sphingosine-1-phosphate stereoisomers and analogues and their interaction with EDG receptors” (Bioorg Med Chem Lett, 2003).
Calls of active or inactive are those of the source. The calls are words filed in the database; no cut-off is given here.

Legend:
Assay type in all cases: cell-based
[1] = target: Sphingosine 1-phosphate receptor 2 (Homo sapiens) (UniProt O95136); assay: In vitro binding affinity towards Endothelial differentiation G-protein coupled receptor 5 in CHO cells using [3H]S1P as radioligand relative to SIP
[2] = target: Sphingosine 1-phosphate receptor 1 (Homo sapiens) (UniProt P21453); assay: In vitro binding affinity towards Endothelial differentiation G-protein coupled receptor 1 in CHO cells using [3H]S1P as radioligand relative to SIP
[3] = target: Sphingosine 1-phosphate receptor 3 (Homo sapiens) (UniProt Q99500); assay: In vitro binding affinity towards Endothelial differentiation G-protein coupled receptor 3 in CHO cells using [3H]S1P as radioligand relative to SIP
[4] = target: Sphingosine 1-phosphate receptor 1 (Homo sapiens) (UniProt P21453); assay: In vitro binding affinity towards Endothelial differentiation G-protein coupled receptor 1 in CHO cells using [3H]S1P as radioligand relative to SIP; Not active
[5] = target: Sphingosine 1-phosphate receptor 2 (Homo sapiens) (UniProt O95136); assay: In vitro binding affinity towards Endothelial differentiation G-protein coupled receptor 5 in CHO cells using [3H]S1P as radioligand relative to SIP; Not active
[6] = target: Sphingosine 1-phosphate receptor 3 (Homo sapiens) (UniProt Q99500); assay: In vitro binding affinity towards Endothelial differentiation G-protein coupled receptor 3 in CHO cells using [3H]S1P as radioligand relative to SIP; Not active

Sequence of Sphingosine 1-phosphate receptor 3 (Homo sapiens) (Q99500 whole entry): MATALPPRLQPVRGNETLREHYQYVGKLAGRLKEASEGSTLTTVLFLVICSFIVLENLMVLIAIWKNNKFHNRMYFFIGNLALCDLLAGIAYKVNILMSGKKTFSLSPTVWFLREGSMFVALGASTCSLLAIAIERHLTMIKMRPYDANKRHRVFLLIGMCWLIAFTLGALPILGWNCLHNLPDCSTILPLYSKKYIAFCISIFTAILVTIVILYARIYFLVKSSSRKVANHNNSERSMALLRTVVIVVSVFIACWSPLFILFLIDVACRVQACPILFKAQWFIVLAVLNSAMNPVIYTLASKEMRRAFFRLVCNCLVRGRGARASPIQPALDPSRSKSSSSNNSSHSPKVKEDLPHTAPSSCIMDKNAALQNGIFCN
Sequence of Sphingosine 1-phosphate receptor 2 (Homo sapiens) (O95136 whole entry): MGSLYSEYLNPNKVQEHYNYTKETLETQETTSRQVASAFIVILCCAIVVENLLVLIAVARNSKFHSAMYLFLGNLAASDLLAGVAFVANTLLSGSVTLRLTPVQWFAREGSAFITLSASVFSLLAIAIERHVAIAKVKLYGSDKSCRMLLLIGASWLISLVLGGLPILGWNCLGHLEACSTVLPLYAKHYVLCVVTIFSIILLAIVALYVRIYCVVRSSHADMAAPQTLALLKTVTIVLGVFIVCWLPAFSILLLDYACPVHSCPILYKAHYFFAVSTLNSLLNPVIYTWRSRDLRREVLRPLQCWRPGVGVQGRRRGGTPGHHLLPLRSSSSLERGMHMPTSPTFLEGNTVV
Sequence of Sphingosine 1-phosphate receptor 1 (Homo sapiens) (P21453 whole entry): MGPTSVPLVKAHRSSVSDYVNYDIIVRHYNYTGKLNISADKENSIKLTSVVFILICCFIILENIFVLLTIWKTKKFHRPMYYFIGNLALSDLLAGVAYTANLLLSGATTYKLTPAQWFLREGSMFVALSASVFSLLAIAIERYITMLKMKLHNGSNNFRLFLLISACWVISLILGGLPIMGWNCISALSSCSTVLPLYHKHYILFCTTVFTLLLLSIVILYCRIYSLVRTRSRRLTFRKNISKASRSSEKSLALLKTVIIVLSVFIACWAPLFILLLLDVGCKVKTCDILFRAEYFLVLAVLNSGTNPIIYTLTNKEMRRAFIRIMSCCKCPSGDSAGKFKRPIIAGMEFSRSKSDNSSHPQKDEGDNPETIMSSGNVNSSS

| Structure (SMILES) | Relative binding affinity [1] [%] | Relative binding affinity [2] [%] | Relative binding affinity [3] [%] | Relative binding affinity [4] | Relative binding affinity [5] | Relative binding affinity [6] |
| --- | --- | --- | --- | --- | --- | --- |
| CCCCCCCCCCCCCCC[C@H](O)[C@@H](N)COP(=O)(O)O | 30 | 12 | 51 | – | – | – |
| CCCCCCCCCCCCCCC[C@H](O)[C@H](N)COP(=O)(O)O | – | – | – | inactive | inactive | inactive |
| CCCCCCCCCCCCC/C=C/[C@H](O)[C@H](N)COP(=O)(O)O | 41 | 7.4 | 20 | – | – | – |
| CCCCCCCCCCCCC/C=C/[C@H](O)[C@@H](N)COP(=O)(O)O | 23 | 27 | 46 | – | – | – |
| CCCCCCCCCCCCCCCC[C@@H](N)COP(=O)(O)O | – | – | 29 | – | – | – |
| CCCCCCCCCCCCC/C=C/[C@@H](O)[C@@H](N)COP(=O)(OC)OC | – | – | – | inactive | inactive | inactive |
| CCCCCCCCCCCCCCC[C@@H](O)[C@@H](N)COP(=O)(O)O | 54 | 41 | 86 | – | – | – |
